In the supplement of paper PMC10949913:

What was measured:
Conditions in all cases: 48 h
CU-ACC2 [1] = assay: AC50 viability; higher = less potent
In short: (§1)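 Library compounds were dispensed at 11 concentrations (23 nL each) onto three adrenocortical carcinoma cell lines in 1,536-well plates. Luminescence was recorded after 48 h using CellTiter-Glo, and signals were normalised per plate to vehicle and empty-well controls. Fitted concentration-response curves of inhibitory or non-responding classes only supplied the AC50 and area under the curve.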

NCI-H295R [2] = assay: AC50 viability; higher = less potent
In short: as §1

CU-ACC2 [3] = assay: area under concentration-response curve (viability) (AUC (a.u.)); higher = less active
In short: as §1

CU-ACC1 = assay: as above
In short: as §1

NCI-H295R [4] = assay: as above
In short: as §1

Row | Structure (SMILES) | AC50 viability (CU-ACC2 [1]) [µM] | AC50 viability (NCI-H295R [2]) [µM] | area under concentration-response curve (CU-ACC2 [3]) | area under concentration-response curve (CU-ACC1) | area under concentration-response curve (NCI-H295R [4])
1 | CC(=O)O[C@H]1C(=O)[C@]2(C)[C@@H](O)C[C@H]3OC[C@@]3(OC(C)=O)C2[C@H](OC(=O)C4=CC=CC=C4)[C@]5(O)C[C@H](OC(=O)[C@H](O)[C@@H](NC(=O)C6=CC=CC=C6)C7=CC=CC=C7)\C(=C1/C5(C)C)C (stereo not given in full) | 8.33 | 0.209 | 473 | 424 | 379
2 | NC(=O)Nc1cc(-c2cccc(F)c2)sc1C(=O)N[C@H]1CCCNC1 | 8.33 | 2.35 | 432 | 397 | 410
3 | COCCNCc1ccc(-c2cc3nccc(Oc4ccc(NC(=S)NC(=O)Cc5ccc(F)cc5)cc4F)c3s2)nc1 | 7.42 | 4.68 | 444 | 436 | 388
4 | CN1C/C=C/CCOc2cccc(c2)-c2ccnc(n2)Nc2cccc(c2)C1 | 0.0525 | 0.235 | 165 | 208 | 164
5 | Cc1ccc(C(=O)Nc2ccc(CN3CCN(C)CC3)c(C(F)(F)F)c2)cc1C#Cc1cnc2[nH]ncc2c1 | 8.33 | 8.33 | 427 | 441 | 392
6 | COc1cccc2c1C(=O)c1c(O)c3c(c(O)c1C2=O)C[C@@](O)(C(=O)CO)C[C@@H]3O[C@H]1C[C@H](N)[C@H](O)[C@H](C)O1 | 5.9 | 16.6 | 485 | 461 | 452
7 | O=C1c2ccccc2-[n+]2ccc3c([nH]c4ccccc43)c21 | 2.35 | 2.35 | 381 | 379 | 374
8 | Cn1c2ccccc2c2c3c(c4c5ccccc5n(CCC#N)c4c21)CNC3=O | 16.6 | 14.8 | 535 | 401 | 503
9 | N[S+](=O)([O-])c1cccc2c1C(=O)c1cccc(O)c1C2=O | 0.661 | 0.661 | 380 | 315 | 370
10 | CC[S+](=O)([O-])Nc1ccc2c(c1)/C(=C(/Nc1ccc(CN3CCCCC3)cc1)c1ccccc1)C(=O)N2 | 3.32 | 5.25 | 425 | 447 | 408
11 | CC[P](CC)(CC)=[Au][S][C@@H]1O[C@H](COC(C)=O)[C@@H](OC(C)=O)[C@H](OC(C)=O)[C@H]1OC(C)=O | 1.86 | 2.09 | 445 | 439 | 400
12 | Cc1c(O)cccc1C(=O)NC(CSc1ccccc1)C(O)CN1CC2CCCCC2CC1C(=O)NC(C)(C)C (stereo not given) | 20.9 | 23.5 | 550 | 406 | 561
13 | c1ccc2c(-c3cnn4cc(-c5ccc(N6CCNCC6)cc5)cnc34)ccnc2c1 | 2.95 | 2.09 | 498 | 434 | 439
14 | COc1ccc2[nH]c3c(c2c1)CCN[C@]31CS[C@@H]2c3c(OC(C)=O)c(C)c4c(c3[C@H](COC1=O)N1[C@@H]2[C@H]2c3c(cc(C)c(OC)c3O)C[C@@H]([C@@H]1O)N2C)OCO4 | 0.00762 | 0.00762 | 187 | 178 | 161
15 | Cc1cc(O)c(-c2ccc([C@@H](C)CN)cc2)c2c1[nH]c(=O)c1sccc12 | 0.148 | 0.00105 | 223 | 203 | 128
16 | CC(=O)O/N=C1/C(=C2\C(=O)Nc3cc(Br)ccc32)Nc2ccccc21 | 9.34 | 13.2 | 561 | 492 | 525
17 | O=C(Nc1ccc([N+](=O)[O-])cc1Cl)c1cc(Cl)ccc1O | 1.48 | 1.48 | 471 | 411 | 481
18 | Cc1ccc(C(=O)OCc2ccc([C@@H](CN)C(=O)Nc3ccc4cnccc4c3)cc2)c(C)c1 | 9.11 | 12.9 | 591 | 507 | 534
19 | CC(C)C(N)C(=O)OCC(CO)OC[N]1C=NC2=C1N\C(=N/C2=O)N (stereo not given) | 5.25 | 0.661 | 436 | 426 | 436
20 | C[C@@H](OC[C@@]1(c2ccccc2)CC[C@]2(CCC(=O)N2)CN1)c1cc(C(F)(F)F)cc(C(F)(F)F)c1 | 20.9 | 16.6 | 566 | 550 | 497
